Test results: PubChem BioAssay (NCI)
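Grown in 96-well plates, cells were treated for 48 hours with each compound at five concentrations. Insufficient inhibition: endpoint recorded as highest concentration tested. TGI: total growth inhibition.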

Experiments:
Test in all cases: growth of human tumour cells (NCI), 48 h
RXF 393 renal = test system: RXF 393 renal
SK-MEL-28 melanoma = test system: SK-MEL-28 melanoma
OVCAR-4 ovarian = test system: OVCAR-4 ovarian
SNB-75 CNS = test system: SNB-75 CNS
SF-268 CNS = test system: SF-268 CNS
NCI-H460 lung = test system: NCI-H460 lung
NCI-H226 lung = test system: NCI-H226 lung
OVCAR-8 ovarian = test system: OVCAR-8 ovarian
UACC-257 melanoma = test system: UACC-257 melanoma
HCC-2998 colon = test system: HCC-2998 colon
IGROV1 ovarian = test system: IGROV1 ovarian
MCF7 breast = test system: MCF7 breast
MALME-3M melanoma = test system: MALME-3M melanoma
PC-3 prostate = test system: PC-3 prostate
SR leukemia = test system: SR leukemia
HCT-116 colon = test system: HCT-116 colon
RPMI-8226 leukemia = test system: RPMI-8226 leukemia
MDA-MB-435 = test system: MDA-MB-435
K-562 leukemia = test system: K-562 leukemia
BT-549 breast = test system: BT-549 breast
HS 578T breast = test system: HS 578T breast
TK-10 renal = test system: TK-10 renal
SF-539 CNS = test system: SF-539 CNS
MDA-MB-231 breast = test system: MDA-MB-231 breast
HOP-62 NSCLC = test system: HOP-62 NSCLC
786-0 renal = test system: 786-0 renal
CAKI-1 renal = test system: CAKI-1 renal
NCI/ADR-RES ovarian = test system: NCI/ADR-RES ovarian
U251 CNS = test system: U251 CNS
NCI-H522 lung = test system: NCI-H522 lung
SF-295 CNS = test system: SF-295 CNS
MDA-N = test system: MDA-N
ACHN renal = test system: ACHN renal
SK-OV-3 ovarian = test system: SK-OV-3 ovarian
SW-620 colon = test system: SW-620 colon
M14 melanoma = test system: M14 melanoma
SN12C renal = test system: SN12C renal
CCRF-CEM leukemia = test system: CCRF-CEM leukemia
DU-145 prostate = test system: DU-145 prostate
UO-31 renal = test system: UO-31 renal
SK-MEL-5 melanoma = test system: SK-MEL-5 melanoma
UACC-62 melanoma = test system: UACC-62 melanoma
A498 renal = test system: A498 renal
NCI-H23 lung = test system: NCI-H23 lung
OVCAR-5 ovarian = test system: OVCAR-5 ovarian
OVCAR-3 ovarian = test system: OVCAR-3 ovarian
SK-MEL-2 melanoma = test system: SK-MEL-2 melanoma
T-47D breast = test system: T-47D breast
SNB-19 CNS = test system: SNB-19 CNS
A549 NSCLC = test system: A549 NSCLC
EKVX NSCLC = test system: EKVX NSCLC
HT29 colon = test system: HT29 colon
KM12 colon = test system: KM12 colon
LOX IMVI melanoma = test system: LOX IMVI melanoma
COLO 205 colon = test system: COLO 205 colon
HOP-92 NSCLC = test system: HOP-92 NSCLC
HCT-15 colon = test system: HCT-15 colon
MOLT-4 leukemia = test system: MOLT-4 leukemia
HL-60(TB) leukemia = test system: HL-60(TB) leukemia

Cc1cc2nc(C#N)c(N3CCN(c4ccc([N+](=O)[O-])cc4)CC3)nc2cc1C
TGI (RXF 393 renal): > 100 µM | TGI (SK-MEL-28 melanoma): > 100 µM | TGI (OVCAR-4 ovarian): > 100 µM | TGI (SNB-75 CNS): > 100 µM | TGI (SF-268 CNS): > 100 µM | TGI (NCI-H460 lung): > 100 µM | TGI (NCI-H226 lung): > 100 µM | TGI (OVCAR-8 ovarian): > 100 µM | TGI (UACC-257 melanoma): > 100 µM | TGI (HCC-2998 colon): > 100 µM | TGI (IGROV1 ovarian): > 100 µM | TGI (MCF7 breast): > 100 µM | TGI (MALME-3M melanoma): > 100 µM | TGI (PC-3 prostate): > 100 µM | TGI (SR leukemia): > 100 µM | TGI (HCT-116 colon): > 100 µM | TGI (RPMI-8226 leukemia): > 100 µM | TGI (MDA-MB-435): > 100 µM | TGI (K-562 leukemia): > 100 µM | TGI (BT-549 breast): > 100 µM | TGI (HS 578T breast): 95.5 µM | TGI (TK-10 renal): > 100 µM | TGI (SF-539 CNS): 81.2 µM | TGI (MDA-MB-231 breast): > 100 µM | TGI (HOP-62 NSCLC): > 100 µM | TGI (786-0 renal): > 92.9 µM | TGI (CAKI-1 renal): > 100 µM | TGI (NCI/ADR-RES ovarian): > 100 µM | TGI (U251 CNS): > 100 µM | TGI (NCI-H522 lung): > 100 µM | TGI (SF-295 CNS): > 100 µM | TGI (MDA-N): > 100 µM | TGI (ACHN renal): > 100 µM | TGI (SK-OV-3 ovarian): > 100 µM | TGI (SW-620 colon): > 100 µM | TGI (M14 melanoma): > 100 µM | TGI (SN12C renal): > 100 µM | TGI (CCRF-CEM leukemia): > 100 µM | TGI (DU-145 prostate): > 100 µM | TGI (UO-31 renal): > 100 µM | TGI (SK-MEL-5 melanoma): > 100 µM | TGI (UACC-62 melanoma): > 100 µM | TGI (A498 renal): > 100 µM | TGI (NCI-H23 lung): > 100 µM | TGI (OVCAR-5 ovarian): > 100 µM | TGI (OVCAR-3 ovarian): > 100 µM | TGI (SK-MEL-2 melanoma): > 100 µM | TGI (T-47D breast): > 100 µM | TGI (SNB-19 CNS): > 100 µM | TGI (A549 NSCLC): > 100 µM | TGI (EKVX NSCLC): > 100 µM | TGI (HT29 colon): > 100 µM | TGI (KM12 colon): > 100 µM | TGI (LOX IMVI melanoma): > 100 µM | TGI (COLO 205 colon): > 100 µM | TGI (HOP-92 NSCLC): > 100 µM | TGI (HCT-15 colon): > 100 µM

C/C=C(\C)[C@@H](O)C(=O)O[C@@H]1CC(C(C)(C)O)[C@](C)(CCC(=O)OC)[C@H]2[C@H](OC(=O)[C@H](O)[C@H](C)CC)C[C@]3(C)C(=CC[C@H]3[C@H]3CO[C@H](C=C(C)C)C3)[C@]12C (some centres undefined)
TGI (RXF 393 renal): 32.9 µM | TGI (SK-MEL-28 melanoma): 40.3 µM | TGI (OVCAR-4 ovarian): 41.8 µM | TGI (SNB-75 CNS): 37.6 µM | TGI (SF-268 CNS): 36.8 µM | TGI (NCI-H460 lung): 38.6 µM | TGI (NCI-H226 lung): 50.9 µM | TGI (OVCAR-8 ovarian): 33.9 µM | TGI (UACC-257 melanoma): 49.9 µM | TGI (HCC-2998 colon): 29.7 µM | TGI (IGROV1 ovarian): > 100 µM | TGI (MCF7 breast): 42.1 µM | TGI (PC-3 prostate): 34.9 µM | TGI (SR leukemia): 40.2 µM | TGI (HCT-116 colon): 31.9 µM | TGI (RPMI-8226 leukemia): 38.3 µM | TGI (MDA-MB-435): 52.5 µM | TGI (K-562 leukemia): 42.4 µM | TGI (BT-549 breast): 32.7 µM | TGI (HS 578T breast): 41 µM | TGI (TK-10 renal): 61.7 µM | TGI (SF-539 CNS): 35.8 µM | TGI (MDA-MB-231 breast): 38.4 µM | TGI (HOP-62 NSCLC): > 100 µM | TGI (786-0 renal): 29.5 µM | TGI (CAKI-1 renal): 87.2 µM | TGI (NCI/ADR-RES ovarian): 30.5 µM | TGI (U251 CNS): 33.4 µM | TGI (NCI-H522 lung): 29.5 µM | TGI (MOLT-4 leukemia): 48.2 µM | TGI (SF-295 CNS): > 100 µM | TGI (MDA-N): 35.4 µM | TGI (ACHN renal): 34.1 µM | TGI (SW-620 colon): 58 µM | TGI (M14 melanoma): 32.8 µM | TGI (DU-145 prostate): 98.5 µM | TGI (HL-60(TB) leukemia): 40.6 µM | TGI (UO-31 renal): 33.5 µM | TGI (SK-MEL-5 melanoma): 33.2 µM | TGI (A498 renal): 60.2 µM | TGI (NCI-H23 lung): 37.7 µM | TGI (OVCAR-5 ovarian): 43.2 µM | TGI (OVCAR-3 ovarian): 44.2 µM | TGI (SK-MEL-2 melanoma): 32.4 µM | TGI (T-47D breast): 87.1 µM | TGI (A549 NSCLC): 61.7 µM | TGI (EKVX NSCLC): 29.8 µM | TGI (HT29 colon): 34.5 µM | TGI (KM12 colon): 65.3 µM | TGI (LOX IMVI melanoma): 31.4 µM | TGI (HOP-92 NSCLC): 71.7 µM | TGI (HCT-15 colon): 37.4 µM

C[N+](C)(C)CCN(Cc1cccs1)c1ccccn1
TGI (RXF 393 renal): > 100 µM | TGI (SK-MEL-28 melanoma): > 100 µM | TGI (OVCAR-4 ovarian): > 100 µM | TGI (SNB-75 CNS): > 100 µM | TGI (SF-268 CNS): > 100 µM | TGI (NCI-H460 lung): > 100 µM | TGI (NCI-H226 lung): > 100 µM | TGI (OVCAR-8 ovarian): > 100 µM | TGI (UACC-257 melanoma): > 100 µM | TGI (HCC-2998 colon): > 100 µM | TGI (IGROV1 ovarian): > 100 µM | TGI (MCF7 breast): > 100 µM | TGI (MALME-3M melanoma): > 100 µM | TGI (PC-3 prostate): > 100 µM | TGI (SR leukemia): > 100 µM | TGI (HCT-116 colon): > 100 µM | TGI (RPMI-8226 leukemia): > 100 µM | TGI (MDA-MB-435): > 100 µM | TGI (K-562 leukemia): > 100 µM | TGI (BT-549 breast): > 100 µM | TGI (HS 578T breast): > 100 µM | TGI (TK-10 renal): > 100 µM | TGI (SF-539 CNS): > 100 µM | TGI (MDA-MB-231 breast): > 100 µM | TGI (HOP-62 NSCLC): > 100 µM | TGI (786-0 renal): > 100 µM | TGI (CAKI-1 renal): > 100 µM | TGI (NCI/ADR-RES ovarian): > 100 µM | TGI (U251 CNS): > 100 µM | TGI (NCI-H522 lung): > 100 µM | TGI (SF-295 CNS): > 100 µM | TGI (MDA-N): > 100 µM | TGI (ACHN renal): > 100 µM | TGI (SK-OV-3 ovarian): > 100 µM | TGI (SW-620 colon): > 100 µM | TGI (M14 melanoma): > 100 µM | TGI (SN12C renal): > 100 µM | TGI (CCRF-CEM leukemia): > 100 µM | TGI (DU-145 prostate): > 100 µM | TGI (HL-60(TB) leukemia): > 100 µM | TGI (UO-31 renal): > 100 µM | TGI (SK-MEL-5 melanoma): > 100 µM | TGI (UACC-62 melanoma): > 100 µM | TGI (A498 renal): > 100 µM | TGI (NCI-H23 lung): > 100 µM | TGI (OVCAR-3 ovarian): > 100 µM | TGI (SK-MEL-2 melanoma): > 100 µM | TGI (T-47D breast): > 100 µM | TGI (SNB-19 CNS): > 100 µM | TGI (A549 NSCLC): > 100 µM | TGI (KM12 colon): > 100 µM | TGI (LOX IMVI melanoma): > 100 µM | TGI (COLO 205 colon): > 100 µM | TGI (HOP-92 NSCLC): 73.9 µM | TGI (HCT-15 colon): > 100 µM
